Test results taken from patent US4751302A, “Indazole derivatives” (priority 1982, dated 1988).

Columns and labels:
[1] = tested on: Carrageenin edema in rat's paw; test: Carrageenin Edema Test in Rat's Paw (anti-inflammatory activity, Table 1); type: in vivo; conditions: 100 mg/kg oral; for inhibition in vivo at 100 mg/kg: hydrochloride, rat; for anti-inflammatory activity in comparison with compounds of the invention: Carrageenin edema
Procedure: An anti-inflammatory activity was measured by orally administering 100 mg/kg of a hydrochloride of the indazole derivative of this invention as set forth in Table 1 to an animal in accordance with the standard method of Carrageenin Edema Test in Rat's Paw described in C. A. Winter et al., Proc. Soc. Exp. Biol. Med., 111, 544 (1962).

[2] = in vivo; conditions: mouse, ip, intraperitoneal, hydrochloride, male ddy mice

CC1CCCCN1CCCn1nc(N)c2cc(Cl)ccc21 (stereo not drawn) [(15), 1-[3-(2-Methylpiperidino)propyl]-3-amino-5-chloroindazole]
inhibition in vivo at 100 mg/kg [1]: 50% | LD50 [2]: 250 mg/kg

CN1CCN(CCCNc2n[nH]c3ccc(O)cc23)CC1 [(86), 3-[3-(4-Methylpiperadino)propylamino]-5-hydroxyindazole]
inhibition in vivo at 100 mg/kg [1]: 23% | LD50 [2]: 123 mg/kg

CC(C)CC(CCn1nc(N)c2cc(O)ccc21)N1CCCCC1 (stereo not drawn) [(36), 1-(3-Piperidino-5-methylhexyl)-3-amino-5-hydroxyindazole]
inhibition in vivo at 100 mg/kg [1]: 32% | LD50 [2]: 251 mg/kg

CCN(CC)C(CCNc1nn(CCC(C)N(C)C)c2ccc(O)cc12)CC(C)C (stereo not drawn) [(141), 1-(3-Dimethylaminobutyl)-3-(3-diethylamino-5-methylhexylamino)-5-hydroxyindazole]
inhibition in vivo at 100 mg/kg [1]: 21% | LD50 [2]: 340 mg/kg

CCN(CC)CCCn1nc(N)c2cccc(Cl)c21 [(4), 1-(3-Diethylaminopropyl)-3-amino-7-chloroindazole]
inhibition in vivo at 100 mg/kg [1]: 59% | LD50 [2]: 273 mg/kg

Nc1n[nH]c2c(O)cccc12 [(164), 3-Amino-7-hydroxyindazole]
inhibition in vivo at 100 mg/kg [1]: 42% | LD50 [2]: 231 mg/kg

CCN(CC)CCCn1nc(NCCCCCCN2CCCCC2)c2cc(O)ccc21 [(127), 1-(3-Diethylaminopropyl)-3-(6-piperidinohexylamino)-5-hydroxyindazole]
inhibition in vivo at 100 mg/kg [1]: 21% | LD50 [2]: 198 mg/kg

Nc1n[nH]c2cc(O)ccc12 [(163), 3-Amino-6-hydroxyindazole]
inhibition in vivo at 100 mg/kg [1]: 43% | LD50 [2]: 252 mg/kg

Nc1nn(CCCN2CCOCC2)c2ccc(Cl)cc12 [(22), 1-(3-Morpholinopropyl)-3-amino-5-chloroindazole]
inhibition in vivo at 100 mg/kg [1]: 46% | LD50 [2]: 388 mg/kg

CC(CCn1nc(N)c2cc(O)ccc21)N1CCCCC1 (stereo not drawn) [(35), 1-(3-Piperidinobutyl)-3-amino-5-hydroxyindazole]
inhibition in vivo at 100 mg/kg [1]: 47% | LD50 [2]: 246 mg/kg

CN1CCN(CCCn2nc(N)c3cc(Cl)ccc32)CC1 [(20), 1-[3-(4-Methylpiperazino)propyl]-3-amino-5-chloroindazole]
inhibition in vivo at 100 mg/kg [1]: 26% | LD50 [2]: 278 mg/kg

CC(CCn1nc(NCCCN2CCCCC2)c2cc(O)ccc21)N1CCCCC1 (stereo not drawn) [(135), 1-(3-Piperidinobutyl)-3-(3-piperidinopropylamino)-5-hydroxyindazole]
inhibition in vivo at 100 mg/kg [1]: 28% | LD50 [2]: 298 mg/kg

Nc1nn(CCCN2CCC(O)CC2)c2ccc(O)cc12 [(39), 1-[3-(4-Hydroxypiperidino)propyl]-3-amino-5-hydroxyindazole]
inhibition in vivo at 100 mg/kg [1]: 35% | LD50 [2]: 311 mg/kg

Oc1ccc2c(c1)c(NCCCN1CCC(O)CC1)nn2CCCN1CCOCC1 [(148), 1-(3-Morpholinopropyl)-3-[3-(4-hydroxypiperidino)propylamino]-5-hydroxyindazole]
inhibition in vivo at 100 mg/kg [1]: 30% | LD50 [2]: 245 mg/kg

Clc1ccc2c(c1)c(NCCCN1CCC(Cl)CC1)nn2CCCN1CCOCC1 [(117), 1-(3-Morpholinopropyl)-3-[3-(4-chloropiperidino)propylamino]-5-chloroindazole]
inhibition in vivo at 100 mg/kg [1]: 30% | LD50 [2]: 291 mg/kg

CCCCN(CCCC)CCCNc1nn(CCCN(CC)CC)c2ccc(O)cc12 [(128), 1-(3-Diethylaminopropyl)-3-(3-di-n-butylaminopropylamino)-5-hydroxyindazole]
inhibition in vivo at 100 mg/kg [1]: 31% | LD50 [2]: 170 mg/kg

Clc1ccc2[nH]nc(NCCCN3CCCCCC3)c2c1 [(63), 3-(3-Homopiperidinopropylamino)-5-chloroindazole]
inhibition in vivo at 100 mg/kg [1]: 57% | LD50 [2]: 331 mg/kg

CC(CCn1nc(NCCC(C)N2CCCCC2)c2cc(O)ccc21)N(C)C (stereo not drawn) [(140), 1-(3-Dimethylaminobutyl)-3-(3-piperidinobutylamino)-5-hydroxyindazole]
inhibition in vivo at 100 mg/kg [1]: 27% | LD50 [2]: 313 mg/kg

CCN(CC)CCCn1nc(N)c2cccc(O)c21 [(26), 1-(3-Diethylaminopropyl)-3-amino-7-hydroxyindazole]
inhibition in vivo at 100 mg/kg [1]: 57% | LD50 [2]: 297 mg/kg

CCCCN(CCCC)CCCn1nc(NCCCN2CCOCC2)c2ccccc21 [(159), 1-(3-Di-n-butylaminopropyl)-3-(3-morpholinopropylamino)indazole]
inhibition in vivo at 100 mg/kg [1]: 41% | LD50 [2]: 191 mg/kg

CC1CCCC(C)N1CCCNc1n[nH]c2ccc(Cl)cc12 (stereo not drawn) [(60), 3-[3-(2,6-Dimethylpiperidino)propylamino]-5-chloroindazole]
inhibition in vivo at 100 mg/kg [1]: 36% | LD50 [2]: 310 mg/kg

CCN(CC)CCCNc1n[nH]c2c(O)cccc12 [(70), 3-(3-Diethylaminopropylamino)-7-hydroxyindazole]
inhibition in vivo at 100 mg/kg [1]: 56% | LD50 [2]: 156 mg/kg

CCN(CC)CCCNc1nn(CCCN2CCOCC2)c2ccc(Cl)cc12 [(115), 1-(3-Morpholinopropyl)-3-(3-diethylaminopropylamino)-5-chloroindazole]
inhibition in vivo at 100 mg/kg [1]: 31% | LD50 [2]: 301 mg/kg

CCN(CC)CCCNc1nn(CCCN(CC)CC)c2ccc(Cl)cc12 [(90), 1-(3-Diethylaminopropyl)-3-(3-diethylaminopropylamino)-5-chloroindazole]
inhibition in vivo at 100 mg/kg [1]: 29% | LD50 [2]: 223 mg/kg

CCN(CC)C(CCNc1n[nH]c2ccc(Cl)cc12)CC(C)C (stereo not drawn) [(54), 3-(3-Diethylamino-5-methylhexylamino)-5-chloroindazole]
inhibition in vivo at 100 mg/kg [1]: 46% | LD50 [2]: 251 mg/kg

Clc1ccc2c(c1)c(NCCCN1CCCCCC1)nn2CCCN1CCCC1 [(112), 1-(3-Pyrrolidinopropyl)-3-(3-homopiperidinopropylamino)-5-chloroindazole]
inhibition in vivo at 100 mg/kg [1]: 29% | LD50 [2]: 325 mg/kg

CC(CCn1nc(N)c2cc(Cl)ccc21)N1CCCCC1 (stereo not drawn) [(13), 1-(3-Piperidinobutyl)-3-amino-5-chloroindazole]
inhibition in vivo at 100 mg/kg [1]: 49% | LD50 [2]: 310 mg/kg

CC(CCn1nc(NCCCN2CCCCC2)c2cc(Cl)ccc21)N(C)C (stereo not drawn) [(109), 1-(3-Dimethylaminobutyl)-3-(3-piperidinopropylamino)-5-chloroindazole]
inhibition in vivo at 100 mg/kg [1]: 29% | LD50 [2]: 387 mg/kg

CN1CCN(CCCn2nc(N)c3cc(O)ccc32)CC1 [(42), 1-[3-(4-Methylpiperazino)propyl]-3-amino-5-hydroxyindazole]
inhibition in vivo at 100 mg/kg [1]: 24% | LD50 [2]: 341 mg/kg

Clc1ccc2[nH]nc(NCCCN3CCCCC3)c2c1 [(55), 3-(3-Piperidinopropylamino)-5-chloroindazole]
inhibition in vivo at 100 mg/kg [1]: 47% | LD50 [2]: 133 mg/kg

CCCn1nc(N)c2ccccc21 [Compound C-1, 1-propyl-3-aminoindazole, reference compound]
inhibition in vivo at 100 mg/kg [1]: 7% | anti-inflammatory activity in comparison with compounds of the invention [1]: little anti-inflammatory activity

Nc1n[nH]c2c(N)cccc12 [Compound C-3, 3,7-diaminoindazole, reference compound]
inhibition in vivo at 100 mg/kg [1]: 6% | anti-inflammatory activity in comparison with compounds of the invention [1]: little anti-inflammatory activity

Nc1nn(CCc2ccccc2)c2ccccc12 [Compound C-2, 1-(2-phenylethyl)-3-aminoindazole, reference compound]
inhibition in vivo at 100 mg/kg [1]: 7% | anti-inflammatory activity in comparison with compounds of the invention [1]: little anti-inflammatory activity
